System: Subjects with a variety of atopic conditions
Assay type: in vivo, human
Parameters: key: a score of 1 was given if symptoms worsened; a score of 2 was given if there was no change in symptoms; a score of 3 was given if there was some improvement in symptoms; a score of 4 was given if there were marked improvement in symptoms
Details: Subject D; eosinophilic esophagitis and GERD; Vitamin D3 4000 IU for 9 months without a probiotic compound

**Q.** Which “score on 4 point scale” value does the source give for `C=C1CC[C@H](O)C/C1=C/C=C1\CCC[C@]2(C)[C@@H]([C@H](C)CCCC(C)C)CC[C@@H]12` [Vitamin D3] here?
**A.** 2
